Reference: ChEMBL document CHEMBL1201862, “PubChem BioAssay data set” (2004)
Calls of active or inactive are those of the source.

What was measured:
[1] = target: T1, High affinity choline transporter 1 (Homo sapiens, UniProt Q9GZV3); test: human choline transporter blockers, potency – cell-based, 5-point CRC, membrane potential dye, dose response (AID 504840); format: functional
T1 sequence (Q9GZV3 whole entry): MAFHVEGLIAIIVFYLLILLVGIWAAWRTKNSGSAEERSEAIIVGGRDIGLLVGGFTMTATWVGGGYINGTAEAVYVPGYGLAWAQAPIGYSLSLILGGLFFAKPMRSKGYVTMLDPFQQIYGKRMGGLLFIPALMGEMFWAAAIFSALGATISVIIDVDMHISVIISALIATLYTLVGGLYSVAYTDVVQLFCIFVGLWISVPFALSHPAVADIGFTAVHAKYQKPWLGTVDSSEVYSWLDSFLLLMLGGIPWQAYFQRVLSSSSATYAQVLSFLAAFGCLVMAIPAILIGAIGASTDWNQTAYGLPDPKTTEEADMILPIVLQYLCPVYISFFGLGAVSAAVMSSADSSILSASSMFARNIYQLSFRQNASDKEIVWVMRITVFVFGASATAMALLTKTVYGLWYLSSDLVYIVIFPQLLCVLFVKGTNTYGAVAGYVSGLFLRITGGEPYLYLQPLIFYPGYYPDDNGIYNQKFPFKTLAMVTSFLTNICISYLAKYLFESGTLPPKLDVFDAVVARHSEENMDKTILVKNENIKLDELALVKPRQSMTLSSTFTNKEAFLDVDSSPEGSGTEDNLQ

HeLa = test: ATP-based viability loss in HeLa cells – cell-based, CellTiter-Glo luminescence, cherry-pick samples, cytotoxicity control for MITF activator project, dose response (AID 540259); format: functional; conditions: Homo sapiens
H9c2 = test: cells; format: functional, cell-based; conditions: Rattus norvegicus, H9c2, Myocardium;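 also: confirmatory concentration-response retest of ultra-high-throughput screening hits for modulation of myocardial damage; cell death induced by hydrogen peroxide oxidative stress; compound pretreatment for 60 min then peroxide exposure for 2 h; potency is for protecting the cells against peroxide damage rather than for killing them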
Aurora kinase A = target: T2, Aurora kinase A (Homo sapiens, UniProt O14965); format: functional;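 also: value from the Navigating the Kinome kinase panel profiling, panel entry STK6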
T2 sequence (O14965 whole entry): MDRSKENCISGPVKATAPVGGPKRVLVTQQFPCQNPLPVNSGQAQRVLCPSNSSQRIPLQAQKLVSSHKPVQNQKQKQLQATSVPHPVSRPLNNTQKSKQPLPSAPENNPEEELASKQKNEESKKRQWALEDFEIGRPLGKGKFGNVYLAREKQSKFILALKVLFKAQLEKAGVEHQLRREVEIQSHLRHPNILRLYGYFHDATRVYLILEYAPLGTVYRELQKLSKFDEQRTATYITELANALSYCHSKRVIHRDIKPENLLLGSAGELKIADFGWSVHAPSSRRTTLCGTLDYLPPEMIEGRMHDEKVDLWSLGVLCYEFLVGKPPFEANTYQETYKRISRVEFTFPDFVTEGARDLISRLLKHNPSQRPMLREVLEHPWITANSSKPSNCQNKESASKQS

[2] = target: Vascular endothelial growth factor receptor 2 (Homo sapiens, UniProt P35968); format: functional
Vascular endothelial growth factor receptor 2, sequence (P35968 whole entry): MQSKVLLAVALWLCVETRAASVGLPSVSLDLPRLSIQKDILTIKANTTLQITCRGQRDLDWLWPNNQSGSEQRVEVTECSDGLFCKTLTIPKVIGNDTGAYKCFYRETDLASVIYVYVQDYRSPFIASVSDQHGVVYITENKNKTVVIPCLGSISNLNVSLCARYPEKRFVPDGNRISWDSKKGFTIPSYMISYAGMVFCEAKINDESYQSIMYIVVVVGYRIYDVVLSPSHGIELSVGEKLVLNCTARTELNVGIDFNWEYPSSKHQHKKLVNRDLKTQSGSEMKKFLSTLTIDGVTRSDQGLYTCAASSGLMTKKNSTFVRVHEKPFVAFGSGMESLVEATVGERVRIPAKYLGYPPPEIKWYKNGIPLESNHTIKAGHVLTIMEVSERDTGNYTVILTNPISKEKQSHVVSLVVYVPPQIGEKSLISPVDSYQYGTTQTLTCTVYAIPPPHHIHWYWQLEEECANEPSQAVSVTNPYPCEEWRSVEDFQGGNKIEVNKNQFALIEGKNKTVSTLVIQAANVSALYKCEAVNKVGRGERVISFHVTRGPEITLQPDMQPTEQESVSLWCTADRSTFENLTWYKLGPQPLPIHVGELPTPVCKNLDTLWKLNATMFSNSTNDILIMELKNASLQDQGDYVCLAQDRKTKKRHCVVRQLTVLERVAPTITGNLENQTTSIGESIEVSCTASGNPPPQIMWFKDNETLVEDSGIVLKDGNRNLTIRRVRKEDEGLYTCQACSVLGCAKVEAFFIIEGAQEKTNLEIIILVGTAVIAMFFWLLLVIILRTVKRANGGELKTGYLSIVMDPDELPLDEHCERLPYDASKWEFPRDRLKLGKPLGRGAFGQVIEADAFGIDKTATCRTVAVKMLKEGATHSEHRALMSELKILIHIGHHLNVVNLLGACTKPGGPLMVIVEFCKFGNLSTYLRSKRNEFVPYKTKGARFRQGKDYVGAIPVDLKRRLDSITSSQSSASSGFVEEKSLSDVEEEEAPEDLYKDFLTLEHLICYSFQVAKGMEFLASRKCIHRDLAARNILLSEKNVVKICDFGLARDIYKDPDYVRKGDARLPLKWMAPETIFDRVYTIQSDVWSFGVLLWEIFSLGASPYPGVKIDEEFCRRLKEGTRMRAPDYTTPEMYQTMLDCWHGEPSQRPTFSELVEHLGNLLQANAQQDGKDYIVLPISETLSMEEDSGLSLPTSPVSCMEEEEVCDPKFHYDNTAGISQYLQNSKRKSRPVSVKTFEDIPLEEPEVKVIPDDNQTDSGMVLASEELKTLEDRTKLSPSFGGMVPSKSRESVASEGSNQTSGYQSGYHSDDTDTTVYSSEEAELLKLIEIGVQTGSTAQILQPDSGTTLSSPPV

Aurora kinase B = Aurora kinase B (Homo sapiens, UniProt Q96GD4); format: functional
Aurora kinase B, sequence (Q96GD4 whole entry): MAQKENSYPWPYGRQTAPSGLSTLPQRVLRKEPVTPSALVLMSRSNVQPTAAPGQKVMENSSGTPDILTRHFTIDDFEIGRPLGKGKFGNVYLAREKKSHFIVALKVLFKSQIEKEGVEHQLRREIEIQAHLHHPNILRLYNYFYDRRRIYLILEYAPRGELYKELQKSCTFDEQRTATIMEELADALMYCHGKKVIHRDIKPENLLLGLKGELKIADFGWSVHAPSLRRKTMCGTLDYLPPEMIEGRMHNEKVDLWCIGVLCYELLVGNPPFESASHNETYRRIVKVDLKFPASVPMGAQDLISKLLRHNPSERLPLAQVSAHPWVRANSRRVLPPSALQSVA

[3] = intracellular Trypanosoma cruzi inhibitors in host cells – cell-based, plate reader, cherry-pick samples, set 3, dose response (AID 651818); format: functional;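 also: compounds incubated with infected cells for about four days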
[4] = target: Glucose-6-phosphate 1-dehydrogenase (Homo sapiens, UniProt P11413); test: inhibition of Homo sapiens G6PD, dose series – biochemical, fluorescence, selectivity assay for P. falciparum G6PD inhibitor project, dose response (AID 504792); format: functional
Glucose-6-phosphate 1-dehydrogenase, sequence (P11413 whole entry): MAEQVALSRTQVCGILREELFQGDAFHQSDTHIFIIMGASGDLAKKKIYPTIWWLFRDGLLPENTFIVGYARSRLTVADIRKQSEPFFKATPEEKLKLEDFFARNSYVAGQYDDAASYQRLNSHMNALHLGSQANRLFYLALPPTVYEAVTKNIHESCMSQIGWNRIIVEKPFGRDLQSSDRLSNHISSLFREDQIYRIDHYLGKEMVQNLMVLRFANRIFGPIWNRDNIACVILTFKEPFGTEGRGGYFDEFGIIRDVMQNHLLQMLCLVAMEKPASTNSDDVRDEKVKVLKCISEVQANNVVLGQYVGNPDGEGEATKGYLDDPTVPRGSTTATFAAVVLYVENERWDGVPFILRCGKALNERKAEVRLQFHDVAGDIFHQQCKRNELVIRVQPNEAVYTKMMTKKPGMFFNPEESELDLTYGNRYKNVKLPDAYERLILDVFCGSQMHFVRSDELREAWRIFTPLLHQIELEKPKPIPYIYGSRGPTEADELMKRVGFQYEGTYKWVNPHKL

Cysteine protease ATG4B = target: T3, Cysteine protease ATG4B (Homo sapiens, UniProt Q9Y4P1); format: functional;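 also: Fluorescence-based dose-response confirmation assay measuring inhibition of ATG4B activity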
T3 sequence (Q9Y4P1 whole entry): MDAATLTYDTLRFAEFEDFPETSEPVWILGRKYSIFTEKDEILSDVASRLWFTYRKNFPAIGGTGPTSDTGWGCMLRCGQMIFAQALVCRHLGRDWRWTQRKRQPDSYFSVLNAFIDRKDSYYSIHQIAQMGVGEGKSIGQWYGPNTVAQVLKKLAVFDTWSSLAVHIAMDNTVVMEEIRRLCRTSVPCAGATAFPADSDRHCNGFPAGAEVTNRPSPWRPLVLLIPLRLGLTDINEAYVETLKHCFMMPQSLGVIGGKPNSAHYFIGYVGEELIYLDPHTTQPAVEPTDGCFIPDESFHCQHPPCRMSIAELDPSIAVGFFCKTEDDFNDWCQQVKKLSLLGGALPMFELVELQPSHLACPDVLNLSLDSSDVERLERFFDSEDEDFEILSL

Phospholipase A2 = Phospholipase A2 (Homo sapiens, UniProt P04054); format: functional;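 also: confirmatory dose-response counterscreen on phospholipase A2, testing hits that came from an ultra-high-throughput screen for ATG4B inhibitors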
Phospholipase A2, sequence (P04054 whole entry): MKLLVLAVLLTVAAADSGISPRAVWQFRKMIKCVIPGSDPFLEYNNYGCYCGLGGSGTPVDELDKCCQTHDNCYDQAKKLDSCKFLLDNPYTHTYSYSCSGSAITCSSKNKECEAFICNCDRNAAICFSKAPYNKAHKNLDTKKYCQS

[5] = Trypanosoma cruzi growth suppression in host cells – NIH3T3 host cells, beta-gal luminescence, confirmation (AID 2044); format: functional, cell-based;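 also: intracellular parasites grown in NIH/3T3 mouse fibroblasts as host cells; luminescent beta-galactosidase reporter signal from transgenic T. cruzi replicating inside host cells; inhibitors lower the luminescence signal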
[6] = NIH3T3 cell viability loss – ATP luminescence, mouse fibroblasts, counter-screen, dose response (AID 2010); format: functional, cell-based;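 also: cells exposed to compound for about 90 hours before reading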
[7] = target: Dual specificity tyrosine-phosphorylation-regulated kinase 1A (Rattus norvegicus, UniProt Q63470); format: biochemical, Homo sapiens

Structure (SMILES): O=C(C1CCCN(c2ncnc3c2nc2n3CCCCC2)C1)N1CCN(c2ccc(F)cc2)CC1 (configuration not stated)
- IC50 [1]: 20.9 µM (active)

Structure (SMILES): c1cc(-c2cc3cc4c(cc3cn2)OCO4)cs1
- AC50 (HeLa): 141 µM (active)

Structure (SMILES): CC(=O)c1ccc(N2CCN(C(=O)C3CCCN(c4ncnc5c4nc4n5CCCCC4)C3)CC2)cc1 (configuration not stated)
- IC50 [1]: 18.2 µM (active)
- IC50 (H9c2): > 79 µM (inactive)

Structure (SMILES): CCCCN1CCN(c2ccc(-c3nc4c(C(N)=O)cccc4[nH]3)cc2)CC1
- Ki (Aurora kinase A): 0.794 µM (active)
- Ki [2]: > 5.01 µM (inactive)
- Ki (Aurora kinase B): 0.0501 µM (active)

Structure (SMILES): COc1ccc(-c2cc(-c3ccccc3)c3cc(Cl)ccc3n2)cc1
- Ki (Aurora kinase A): 0.0501 µM (active)
- Ki (Aurora kinase B): 0.251 µM (active)

Structure (SMILES): NC(=NO)c1ccccc1S(=O)(=O)Nc1ccc2c(c1)C(=NO)c1ccccc1-2
- Ki (Aurora kinase A): 0.631 µM (active)
- Ki [2]: > 5.01 µM (inactive)
- Ki (Aurora kinase B): 0.0251 µM (active)

Structure (SMILES): C[C@H]1CN([C@@H](C)CO)C(=O)c2cccc(NC(=O)c3ccncc3)c2O[C@@H]1CN(C)Cc1ccc2c(c1)OCO2
- AC50 [3]: 0.277 µM (active)

Structure (SMILES): Cc1ccc(S(=O)(=O)Nc2ccc3c(c2)CC(=O)N([C@H](C)CO)C[C@@H](C)[C@H](CN(C)Cc2ccc4c(c2)OCO4)O3)cc1
- AC50 [3]: 4.35 µM (active)

Structure (SMILES): C[C@@H]1CN([C@H](C)CO)C(=O)c2cccc(NC(=O)Nc3ccc(C(F)(F)F)cc3)c2O[C@@H]1CN(C)C(=O)NC1CCCCC1
- AC50 [3]: 5.14 µM (active)

Structure (SMILES): NC(=O)N/N=C/c1ccc(-n2nncc2-c2ccc(Cl)cc2)cc1
- IC50 [4]: > 80 µM (inactive)

Structure (SMILES): Oc1c(Br)cc(Br)cc1/C=N/n1c(S)nnc1-c1ccccc1
- IC50 (Cysteine protease ATG4B): 8.08 µM (active)
- IC50 (Phospholipase A2): 33.5 µM (inactive)

Structure (SMILES): C/C(Cn1nnc([N+](=O)[O-])n1)=N\NC(=O)c1cccc(Cl)c1
- EC50 [5]: 0.416 µM (active)
- EC50 [6]: > 60 µM (not active)
- IC50 [4]: > 80 µM (inactive)

Structure (SMILES): C[N+](C)(CCOc1ccccc1)Cc1ccccc1
- AC50 [7]: 10.5 µM (active)
